Assays:
[1] = target: T1, Human immunodeficiency virus type 1 integrase (Human immunodeficiency virus 1, UniProt Q7ZJM1); assay: Inhibition of HIV1 recombinant integrase 3' processing activity using [32P]-radiolabeled full-length DNA as substrate after 1 hr by densitometric analysis
[2] = target: T1, Human immunodeficiency virus type 1 integrase; assay: Inhibition of HIV1 recombinant integrase strand transfer activity using [32P]-radiolabeled full-length DNA as substrate after 1 hr by densitometric analysis
[3] = target: T1, Human immunodeficiency virus type 1 integrase; assay: Inhibition of HIV1 recombinant integrase strand transfer activity using precleaved LTR DNA as substrate after 1 hr by densitometric analysis
[4] = target: Human immunodeficiency virus type 1 integrase (Human immunodeficiency virus 1) (UniProt Q7ZJM1); assay: Selectivity ratio of IC50 for HIV1 recombinant integrase strand transfer activity using precleaved LTR DNA as substrate to IC50 for HIV1 recombinant integrase strand transfer activity using [32P]-radiolabeled full-length DNA as substrate
Sequence of Human immunodeficiency virus type 1 integrase (Human immunodeficiency virus 1) (Q7ZJM1 as listed by the source): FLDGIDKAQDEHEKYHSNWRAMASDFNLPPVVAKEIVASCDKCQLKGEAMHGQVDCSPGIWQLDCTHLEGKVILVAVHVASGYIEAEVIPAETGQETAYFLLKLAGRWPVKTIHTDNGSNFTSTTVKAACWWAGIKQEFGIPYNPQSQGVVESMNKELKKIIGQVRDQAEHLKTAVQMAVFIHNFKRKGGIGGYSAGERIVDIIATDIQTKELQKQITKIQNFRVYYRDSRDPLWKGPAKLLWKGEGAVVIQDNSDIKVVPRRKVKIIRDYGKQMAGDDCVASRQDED

T1 sequence (Q7ZJM1 whole entry): as the sequence (Q7ZJM1 as listed by the source) above

Structure (SMILES)	IC50 [1] [µM]	IC50 [2] [µM]	IC50 [3] [µM]	Ratio IC50 [4]
CCCCCCCC[N+](C)(CCCCCCCC)CCCCCCCC [listing 1 of 2 here]	9	6.12		
CCCCCCCCCCCCCCCCCC[n+]1ccn(C)c1.O=S(=O)([N-]S(=O)(=O)C(F)(F)F)C(F)(F)F	1.6	1.53	4	
C[N+](C)(C)C.O=C1O[B-]2(OC1=O)OC(=O)C(=O)O2	> 333	310		
CCCCCCCC[n+]1ccccc1	> 100	> 100		
CCCCCCCCCCCCCCCCn1cc[n+](C)c1	2.5	1.3	5.6	3
CCCCCCCC[n+]1ccn(C)c1	> 100	> 100		
CCCCCCCC[N+](C)(CCCCCCCC)CCCCCCCC [listing 2 of 2 here]	6.8	2.8		
CN(C)C(N(C)C)N(C)C	> 100	> 100		
CCCCCCCCCCCCn1cc[n+](C)c1	72	36.6		
CCCCCCCC[N+]1(C)CCCC1	> 100	> 100		
CCCCCCCCN(C)CCCCCCCC	> 333	> 333		
CCCCCCCC[N+](C)(CCCCCCCC)CCCCCCCC.O=S(=O)([N-]S(=O)(=O)C(F)(F)F)C(F)(F)F	> 100	6.6		
CCCCCCCCCCn1ccnc1	> 333	> 333		
CCCCCCCCCCCCCCCCCCn1ccnc1	> 333	> 333		
CCCCCCCCN(CCCCCCCC)CCCCCCCC	> 333	> 333		
CCCCCCCCCCCCCCCCCC[n+]1ccn(C)c1 [listing 1 of 2 here]	1.7	1.1	3.5	
CCCCCCCCCCCCCCCCCC[n+]1ccn(C)c1 [listing 2 of 2 here]		1.4		
CCCCCCCCCCCCCCCCCCPCCCCCCCCCCCCCC.O=S(=O)(NS(=O)(=O)C(F)(F)F)C(F)(F)F (stereo not given)	> 100	> 100		
CCCCCCCCCCn1cc[n+](C)c1	> 333	> 333		
CCCCCCCCCCCCCCn1cc[n+](C)c1	55.2	20.2		
C[N+](C)(C)C.FC(F)(F)C(F)(F)[P-](F)(F)(F)(C(F)(F)C(F)(F)F)C(F)(F)C(F)(F)F	138	38.5		

— ChEMBL document CHEMBL3217518, “Biological evaluation of imidazolium- and ammonium-based salts as HIV-1 integrase inhibitors” (Medchemcomm, 2011)
